Test results as given in US7569661B2, “Polypeptide scaffolds and use thereof” (Modpro AB, priority 2002, dated 2009).
No end group written: not given here. *: point of attachment. Dansyl = CN(C)c1cccc2c(S(=O)(=O)*)cccc12

Tests used:
[1] = target: T1, human carbonic anhydrase II, HCAII (Homo sapiens, UniProt P00918); assay: Surface plasmon resonance-based steady state affinity, immobilized HCAII; conditions: 1:1 binding model, peptide 40 nM to 10 μM
Experimental: [Taylor, P. W.; King, R. W.; Burgen, A. S. V. Biochemistry 1970, 9, 2638-2645] […] Lond. B 1976, 193, 107-125]. […] 1.4 equivalents of Id were allowed to react with 1 equivalent of KE2-P or KE3-P in 50 mM Tris-HCl buffer at pH 8.0 and room temperature.

[2] = target: T1, human carbonic anhydrase II, HCAII; assay: Fluorescence emission spectra of dansyl-labelled peptides in absence and presence of HCAII; format: binding; conditions: 1 μM peptide, 50 μM HCAII, 10 mM HBS buffer pH 7.4, 298 K, excitation 335 nm
Experimental: Dotted lines represent spectra in the absence of HCAII, solid lines represent spectra where 50 μM HCAII has been added.
Spectra were recorded of 1 μM peptide solutions in 10 mM HBS buffer at pH 7.4 and 298 K, in the absence and presence of 50 μM HCAII, with 1 μM solutions of KE2-P and KE3-P as negative controls, FIG. 2.

Kd [1] | increase of fluorescence intensity upon addition of HCAII [2] | Molecule
44 nM |  | NS(=O)(=O)c1ccc(C(=O)NCCCCCC(=O)O)cc1 [Ic]
 | not affected | KE3-P: KE3 with dansyl fluorescent probe at the side chain of Lys15; control without ligand (NAADLEAKIRHLAEK(Dansyl)LAARGPCDAAQLAEQLARRFEAFARAG)
